For `CCc1oc2ccccc2c1C(=O)NCc1ccc2c(Br)c(OC(Cc3ccccc3)C(=O)OC)ccc2c1` (stereo unspecified), the melting point lay in the range of 139 to 143 °C.

As to `COc1ccc(-c2cc(=O)n(CCc3ccc(Cl)cc3Cl)nc2-c2ccc(OC)cc2)cc1`, the melting point lay within 119 to 120 °C.

For `CC(C)(C)OC(=O)[C@@H]1CNC(=O)N1C(=O)OCc1ccccc1`, the melting point lay within 138 to 139 °C.

In turn, `Cc1cc(-c2cscn2)ccc1-c1cc(C(F)(F)F)nn1-c1ccc(S(C)(=O)=O)cc1` came in with a melting point of 175 °C.

`CS(=O)(=O)c1ccc(-c2cnn(-c3ccc(F)c(F)c3)c(=O)c2CCC=C2CC2)cc1`: the melting point fell in the range of 128 to 129 °C.

Molecule `CC(=O)Nc1ccc2ccccc2c1-c1c(P(c2ccccc2)c2ccccc2)ccc2ccccc12` displayed a melting point of 105 °C.

In the case of `Cc1cccc(C2(O)CCN(c3ccc(O)nn3)CC2)c1`, the melting point was found to be 265 °C.

For the molecule `Cc1ccc(S(=O)(=O)N2[C@@H](c3ncon3)CC[C@H]2c2ccc(F)cc2)cc1` (racemic), the melting point stood at 165 °C.

Turning to `O=c1[nH]c2ccccc2n1CCN1CCN(Cc2ccccc2)CC1`, the melting point turned out to be 136 °C.

As for `Nc1nc(-c2ccc(Cl)cc2F)nc(C(=O)O)c1Cl`, the melting point lay within 194 to 196 °C.

The molecule `COC(=O)C1CCCN(C(=O)OC(C)(C)C)C1` (stereo unspecified) registered a melting point of 47.5 to 48.5 °C.

`NS(=O)(=O)c1ccc(NC(=O)Nc2ccc(I)cc2)cc1` came in with a melting point of 275 to 277 °C.

For `NC(=O)N1Cc2ccccc2-c2ccccc2C1`, the melting point fell in the range of 212 to 214 °C.

In the case of `COc1cc(C(=O)O)c(-c2c(C(=O)O)cc(OC)c3c2OCO3)c(OC)c1OC`, the melting point lay within 258 to 259 °C.

In turn, `COc1ccc(-n2nc(C(=O)CCCO)cc2-c2ccc(S(C)(=O)=O)cc2)cc1` gave a melting point of 125 to 127 °C.

With `CNC(=O)NNC1=NS(=O)(=O)c2ccccc21`, the melting point was determined as 183 °C.

Molecule `CCc1cccc2sc(COc3ccc(F)c(C(N)=O)c3F)nc12` gave a melting point of 184 to 186 °C.

Molecule `CCC1(CCCCCl)C(=O)Nc2ccc(Cl)cc21` (stereo unspecified) displayed a melting point of 116 to 117 °C.

Turning to `N#CCCc1cccc(O)c1`, the melting point was in the range of 64 to 66 °C.

Regarding `O=C1C=C(Nc2ccccc2F)CCC1`, the melting point lay in the range of 116 to 118 °C.

Molecule `Fc1cc(-c2ncon2)ccc1CBr` gave a melting point of 87.3 °C.

Take `CC(=O)SCC(C(=O)NC(Cc1ccc(O)cc1)C(=O)O)C(F)(F)F` (stereo unspecified): the melting point lay in the range of 170 to 173 °C.

As for `C[C@H]1CCCC(C)(C)[C@@H]1[C@@H](O)c1cccc(Cl)c1`, the melting point was 58 to 60 °C.

In turn, `CCCCCCCCCCCCCCCCCC#CC(C(=O)OCC)C(=O)OCC` registered a melting point of 33 to 34 °C.

For `CC(C)(CN1CCN(C(=O)c2ccc(OC(=O)Cc3ccccc3Nc3c(Cl)cccc3Cl)cc2)CC1)SN=O`, the melting point lay in the range of 61 to 62 °C.

`N#Cc1ccc(CC23CCCN2C(=O)N(c2cc(Cl)cc(Cl)c2N)C3=O)cc1` (stereo unspecified) displayed a melting point of 122 °C.

The molecule `CCc1c(CCC(=O)O)ccc2c1OCO2` showed a melting point of 127 to 128 °C.

Molecule `Cn1cc(C(N)=O)c(Nc2ccc(C#N)cc2F)cc1=O` came in with a melting point of 261 to 266 °C.

`CCOC(=O)C(CC)Sc1nc2c(c(=O)[nH]c(=O)n2C)n1Cc1cccc(N)c1` (stereo unspecified) registered a melting point of 107 °C.

For the molecule `COc1cc(/C=C/c2ccc(C(C)C)cc2)cc(OC)c1OC`, the melting point is 74 to 75 °C.

In the case of `CN1CCC2(CC1)c1ccccc1Sc1c(O)cccc12`, the melting point lay within 180 to 182 °C.

For `CSC1CCC(=O)C(C(=O)c2ccc(S(C)(=O)=O)cc2Cl)C1=O` (stereo unspecified), the melting point was in the range of 146 to 149 °C.

In turn, `O=c1[nH]nc2c3c(cccc13)N=CN2` returned a melting point greater than 300 °C.

Molecule `CCCC(=O)c1cnc2c(OC)cccc2c1Cl` returned a melting point of 114 to 116 °C.

In the case of `COC(=O)C(=NOC(F)F)c1ccccc1COc1cc(C)ccc1C`, the melting point lay in the range of 61 to 65 °C.

For `C/C(=C\C=C(c1ccccc1)c1ccccc1)C(=O)O`, the melting point is 184 to 186 °C.

Usually melting point stands for the temperature of the solid-liquid transition.

The record behind these values is a melting point compilation (Tetko et al.; mined from patent text by program, amines drawn as free bases though some values may be those of a salt).
